Results reported in ChEMBL document CHEMBL4414672, “Synthesis of certain benzothieno[3,2-d]pyrimidine derivatives as a selective SIRT2 inhibitors” (Eur J Med Chem, 2020).
In brackets after ≈: the same amount, converted by molar mass.

How the values were obtained:
[1] = test system: HCT-15; test: Growth inhibition of human HCT15 cells at 10^-5 M incubated for 48 hrs by sulforhodamine B assay; format: functional; details: HCT-15, 48 h, read-out: GI
[2] = test system: SNB-19; test: Growth inhibition of human SNB19 cells at 10^-5 M incubated for 48 hrs by sulforhodamine B assay; format: functional; details: SNB-19, 48 h, read-out: GI
[3] = test system: OVCAR-4; test: Growth inhibition of human OVCAR4 cells at 10^-5 M incubated for 48 hrs by sulforhodamine B assay; format: functional; details: OVCAR-4, 48 h, read-out: GI
[4] = test system: HCT-116; test: Growth inhibition of human HCT116 cells at 10^-5 M incubated for 48 hrs by sulforhodamine B assay; format: functional; details: HCT-116, 48 h, read-out: GI
[5] = molecular target: T1, NAD-dependent protein deacetylase sirtuin-2 (Homo sapiens, UniProt Q8IXJ6); test: Inhibition of SIRT2 (unknown origin) using fluorogenic substrate assessed as deacetylase activity incubated for 45 mins by fluorescence assay
T1 sequence (Q8IXJ6 whole entry): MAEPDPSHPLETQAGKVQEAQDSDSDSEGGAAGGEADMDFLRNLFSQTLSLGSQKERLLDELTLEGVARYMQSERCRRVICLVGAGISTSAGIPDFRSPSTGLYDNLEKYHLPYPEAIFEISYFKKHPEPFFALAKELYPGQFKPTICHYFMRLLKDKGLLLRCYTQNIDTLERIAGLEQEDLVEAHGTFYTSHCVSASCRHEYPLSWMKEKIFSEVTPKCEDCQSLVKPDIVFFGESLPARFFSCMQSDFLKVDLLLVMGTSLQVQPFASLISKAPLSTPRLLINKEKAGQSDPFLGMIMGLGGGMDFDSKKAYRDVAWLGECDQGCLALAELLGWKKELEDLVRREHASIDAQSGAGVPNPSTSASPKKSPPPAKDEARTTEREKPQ

[6] = test system: HL-60(TB); test: Growth inhibition of human HL-60(TB) cells at 10^-5 M incubated for 48 hrs by sulforhodamine B assay; format: functional; details: HL-60, 48 h, read-out: GI
[7] = test system: MOLT-4; test: Growth inhibition of human MOLT4 cells at 10^-5 M incubated for 48 hrs by sulforhodamine B assay; format: functional; details: MOLT-4, 48 h, read-out: GI
[8] = test system: KM12; test: Growth inhibition of human KM12 cells at 10^-5 M incubated for 48 hrs by sulforhodamine B assay; format: functional; details: KM12, 48 h, read-out: GI
[9] = test system: SF-539; test: Growth inhibition of human SF539 cells at 10^-5 M incubated for 48 hrs by sulforhodamine B assay; format: functional; details: SF-539, 48 h, read-out: GI
[10] = test system: SK-MEL-2; test: Growth inhibition of human SK-MEL-2 cells at 10^-5 M incubated for 48 hrs by sulforhodamine B assay; format: functional; details: SK-MEL-2, 48 h, read-out: GI
[11] = test system: MCF7; test: Cytotoxicity against human MCF7 cells assessed as reduction in cell viability after 24 hrs by MTT assay; format: functional, cell-based; details: MCF7, 24 h
[12] = test system: UO-31; test: Growth inhibition of human UO31 cells at 10^-5 M incubated for 48 hrs by sulforhodamine B assay; format: functional; details: UO-31, 48 h, read-out: GI
[13] = test system: NCI-H522; test: Growth inhibition of human NCI-H522 cells at 10^-5 M incubated for 48 hrs by sulforhodamine B assay; format: functional; details: NCI-H522, 48 h, read-out: GI
[14] = test system: NCI-H460; test: Growth inhibition of human NCI-H460 cells at 10^-5 M incubated for 48 hrs by sulforhodamine B assay; format: functional; details: NCI-H460, 48 h, read-out: GI
[15] = test system: SK-MEL-28; test: Growth inhibition of human SK-MEL-28 cells at 10^-5 M incubated for 48 hrs by sulforhodamine B assay; format: functional; details: SK-MEL-28, 48 h, read-out: GI
[16] = test system: MDA-MB-435; test: Growth inhibition of human MDA-MB-435 cells at 10^-5 M incubated for 48 hrs by sulforhodamine B assay; format: functional; details: MDA-MB-435, 48 h, read-out: GI
[17] = test system: CCRF-CEM; test: Growth inhibition of human CCRF-CEM cells at 10^-5 M incubated for 48 hrs by sulforhodamine B assay; format: functional; details: read-out: GI
[18] = test system: LOX IMVI; test: Growth inhibition of human LOXIMVI cells at 10^-5 M incubated for 48 hrs by sulforhodamine B assay; format: functional; details: read-out: GI
[19] = test system: T47D; test: Growth inhibition of human T47D cells at 10^-5 M incubated for 48 hrs by sulforhodamine B assay; format: functional; details: read-out: GI
[20] = test system: HOP-62; test: Growth inhibition of human HOP62 cells at 10^-5 M incubated for 48 hrs by sulforhodamine B assay; format: functional; details: HOP-62, 48 h, read-out: GI
[21] = test system: SF-295; test: Growth inhibition of human SF295 cells at 10^-5 M incubated for 48 hrs by sulforhodamine B assay; format: functional; details: SF-295, 48 h, read-out: GI
[22] = test system: UO-31; test: Cytotoxicity against human UO31 cells assessed as reduction in cell viability after 24 hrs by MTT assay; format: functional, cell-based; details: UO-31, 24 h
[23] = test system: 786-0; test: Growth inhibition of human 786-0 cells at 10^-5 M incubated for 48 hrs by sulforhodamine B assay; format: functional; details: 786-0, 48 h, read-out: GI

Compound | inhibition of growth at 10 µM [1] [%] | inhibition of growth at 10 µM [2] [%] | inhibition of growth at 10 µM [3] [%] | inhibition of growth at 10 µM [4] [%] | inhibition of growth at 10 µM [6] [%] | inhibition of growth at 10 µM [7] [%] | inhibition of growth at 10 µM [8] [%] | inhibition of growth at 10 µM [9] [%] | inhibition of growth at 10 µM [10] [%] | IC50 [11] [µg/mL] | inhibition of growth at 10 µM [12] [%] | inhibition of growth at 10 µM [13] [%] | inhibition of growth at 10 µM [14] [%] | inhibition of growth at 10 µM [15] [%] | inhibition of growth at 10 µM [16] [%] | inhibition of growth at 10 µM [17] [%] | inhibition of growth at 10 µM [18] [%] | inhibition of growth at 10 µM [19] [%] | inhibition of growth at 10 µM [20] [%] | inhibition of growth at 10 µM [21] [%] | also measured
NC(=O)CSC1=Nc2c(sc3ccc(Cl)cc23)C(c2cccc([N+](=O)[O-])c2)N1 (stereo unspecified) | -3.38 | -7.64 | -4.84 | 6.66 | -2.94 | 3.86 | -8.1 | 0.81 | -13 | 5.06 (≈ 11.7 µM) | 34.3 | 6.5 | 19.3 | -21.2 | -11.3 | -22 | 3.56 | 23.9 | 6.5 | -2.8 | IC50 [5]: 17 µM; IC50 [22]: 46.8 µg/mL (≈ 108 µM); inhibition of growth at 10 µM [23]: -0.38%
O=[N+]([O-])c1cccc(C2c3sc4ccc(Cl)cc4c3N=C3NN=C(c4cccc(F)c4)N32)c1 (stereo unspecified) | 0.97 | -0.64 | 0.57 | 2.49 | 2.97 | 13 | 2.47 | 4.75 | -11.2 | 0.23 (≈ 0.481 µM) | 41.4 | 7.14 | 13.4 | -15.4 | -11.2 | -19.6 | 0.5 | 18.1 | 14.2 | 2.31 | IC50 [5]: 8.47 µM; IC50 [22]: 10.5 µg/mL (≈ 21.9 µM); inhibition of growth at 10 µM [23]: -1.01%
S=C1Nc2c(sc3ccc(Cl)cc23)C(c2ccc3ccccc3c2)N1 (stereo unspecified) | 2.67 | 7.85 | 11 | 9.94 | -2.53 | 7.43 | -6.6 | 3.23 | 9.98 | 19.6 (≈ 51.6 µM) | -25.5 | 17.7 | 6.2 | -2.16 | -2.5 | -3.09 | 7.47 | 22.5 | 10.1 | 3.23 | IC50 [22]: 7.91 µg/mL (≈ 20.8 µM); inhibition of growth at 10 µM [23]: 4.93%
O=C1/C(=C\c2ccc3ccccc3c2)Sc2ccc(Cl)cc21 | -4.32 | -8.84 | 12.3 | 6.88 | -7.44 | 1.25 | -1.53 | -8.09 | -0.66 | 43.9 (≈ 136 µM) | -5.61 | 11.7 | 0.3 | -17.4 | -2.15 | -2.13 | 1.77 | 29.5 | 5.71 | -8.09 | IC50 [22]: 39.9 µg/mL (≈ 124 µM); inhibition of growth at 10 µM [23]: 0.49%
O=[N+]([O-])c1cccc(C2c3sc4ccc(Cl)cc4c3N=C3NN=CN32)c1 (stereo unspecified) | -1.1 | 1.87 | 0.93 | 3.22 | -6.74 | 0.47 | 3.7 | 6.94 | -3.53 | 9.8 (≈ 25.5 µM) | 23 | 1.55 | 2.77 | -17.9 | -17.5 | -13.4 | 6.72 | -3.72 | 10.8 | -3.63 | IC50 [5]: 6.64 µM; IC50 [22]: 26.2 µg/mL (≈ 68.4 µM); inhibition of growth at 10 µM [23]: 5.64%
Cc1cc(C)n(C2=Nc3c(sc4ccc(Cl)cc34)C(c3cccc([N+](=O)[O-])c3)N2)n1 (stereo unspecified) | -0.63 | 3.18 | -2.96 | 5.98 | -2.76 | 16.5 | 2.61 | -0.76 | -5.1 | 1.67 (≈ 3.81 µM) | 43.7 | 10.8 | 7.9 | -16 | -3.52 | -7.22 | 0.51 | 13.2 | 18.2 | 2.13 | IC50 [5]: 19.3 µM; IC50 [22]: 9.62 µg/mL (≈ 22 µM); inhibition of growth at 10 µM [23]: -6.44%
